According to US10961492B2, “Microfluidic devices and related methods for generation and/or culture and/or maturation of three-dimensional cells and/or tissue constructs” (POLITECNICO DI MILANO, priority 2015, dated 2021):

Test system: mature cardiac construct
Experiment: drug screening on mature cardiac construct in the microfluidic device (spontaneous contraction frequency)
Assay type: cell-based, neonatal rats
Details: increasing concentrations 1 and 2 μg/ml in culture medium injected in sequence; evaluated 60 seconds after injection; 37° C.; with respect to control construct without drug
Experimental: The cells of interest were isolated using the following process. The cardiac tissue removed from the ventricles of neonatal rats was digested in trypsin (0.6 mg/ml, in a Hank balanced saline solution, HBSS) for 18 hours. The digestion was then blocked by adding 10 ml of culture medium (Dulbecco Modified Eagle's Medium, DMEM) containing: 10% of fetal bovine serum, 1% of penicillin-streptomycin, 1% of HEPES and 1% of L-Glutamine. The isolation of the cells from the matrix was then obtained with five passages in a solution of collagenase (1 mg/ml in HBSS) at 37° C. for 5 minutes. The cell suspension thus obtained was centrifuged at 700 rpm for 10 minutes, re-suspended in 25 ml of culture medium and seeded in a culture flask to isolate the fraction of cardiomyocytes (non-adherent).
For seeding inside the device, the cardiac cells thus isolated were diluted in a solution of fibrin gel at a cell concentration of 1×10^5 cells/μl. More specifically, for the seeding of 6 devices, 20 μl of fibrin gel were prepared by mixing 20×10^5 cells (estimated volume of 8.2 μl), 4 μl of calcium chloride, 4 μl of fibrinogen (20 mg/ml in sodium chloride), 2.8 μl of aprotinin (16 TIU/ml in distilled water) and 1 μl of thrombin (5 U/ml in calcium chloride). […]

In the case of `CCN(CC)CC(=O)Nc1c(C)cccc1C` [lidocaine], the spontaneous contraction frequency is reported as “decrease in the contraction frequency”.
